Measured values reported in ChEMBL document CHEMBL1156839, “From anti-fouling to biofilm inhibition: new cytotoxic secondary metabolites from two Indonesian Agelas sponges” (Bioorg Med Chem, 2010).
Values after ≈ are worked out from the molar mass of the structure shown. Structures can show the parent of a compound that is named as a salt. Active and inactive are the calls of the source. The calls are words filed in the database; no cut-off is given here.

Key:
[1] = system: Staphylococcus epidermidis; assay: Antibacterial activity against Staphylococcus epidermidis; format: functional
L5178Y [2] = assay: Cytotoxicity against mouse L5178Y cells after 72 hrs by MTT assay; format: functional, cell-based
[3] = system: Staphylococcus epidermidis; assay: Antibacterial activity against Staphylococcus epidermidis assessed as inhibition of biofilm formation after 18 hrs by adherent assay; format: functional, organism-based
[4] = system: Staphylococcus epidermidis; assay: Growth inhibition of Staphylococcus epidermidis; format: functional, organism-based
L5178Y [5] = assay: Growth inhibition of mouse L5178Y cells at […] after 72 hrs by MTT assay relative to untreated control; format: functional; set-up: dose or concentration left out as unconfirmed; conditions: values are per cent of control
Amphibalanus improvisus [6] = assay: Antifouling activity against Balanus improvisus […] larvae assessed as inhibition of cyprid larval settlement at 0.1 uM to 100 uM; format: functional, organism-based
Amphibalanus improvisus [7] = assay: Toxicity against Balanus improvisus […] larvae assessed as cyprid larval death at 0.1 uM to 100 uM; format: ADME, organism-based; conditions: in vivo
[8] = Staphylococcus epidermidis, read-out: MIC

Structure (SMILES) | MIC [1, 8] | MIC [1] | IC50 (L5178Y [2]) | inhibition [3] | growth inhibition (GI) [4] | growth, % of control (L5178Y [5]) | inhibition (Amphibalanus improvisus [6]) | Activity (Amphibalanus improvisus [7])
CN(C)CCc1ccc(OCCCNC(=O)c2cc(Br)c[nH]2)c(I)c1 [AGELANESIN B] | > 38 µM |  | 9.25 µM | inactive | inactive | 2.3% |  | 
CCN1C(=N)NC(=O)C1(CCCNC(=O)c1cc(Br)c(Br)n1C)NCCS(=O)(=O)O (configuration not stated) [MAURITAMIDE C] | > 35 µM |  |  | inactive | inactive | 98.6% |  | 
CN1C(=O)NC(CCCNC(=O)c2cc(Br)c(Br)n2C)C1=O (configuration not stated) [MIDPACAMIDE] | > 46 µM |  |  | inactive | inactive | 46.7% |  | 
Cn1c(C(=O)N2CCC(O)=C3N=C(N)N=C32)cc(Br)c1Br [AGELANIN A] | > 48 µM |  |  | inactive | inactive | 98.9% |  | 
C=C1CC[C@@H]2C(C)(C)CCC[C@@]2(C)[C@@H]1CC/C(C)=C/Cn1c[n+](C)c2ncnc(N)c21.[Cl-] [AGELASINE D] | < 0.0877 µM |  | 4.03 µM | inactive | inactive | 1.9% | Dose-dependent effect | Toxic
CC1=CCC[C@@H](C)[C@]1(C)CC/C(C)=C/CC/C(C)=C/CS(=O)(=O)CCNC(=N)N [AGELASIDINE C] | 5.9 µM (≈ 2.5 µg/mL) |  |  | inactive | inactive | 37.4% |  | 
NC1=N[C@@]23CCCN2C(=O)c2cc(Br)c(Br)n2[C@H]3N1 |  |  |  | inactive | inactive |  |  | 
NC1=N[C@@]23CCCN2C(=O)c2cc(Br)c(Br)n2[C@H]3N1 [DIBROMPHAKELLIN] |  | >51 µM |  |  |  |  |  | 
C=C1CC[C@@H]2C(C)(C)CCC[C@@]2(C)[C@@H]1CC/C(C)=C/C[n+]1cn(C)c2nc[nH]/c(=N\O)c21.[Cl-] | > 45 µM |  | 12.5 µM | Active | inactive | 4.2% | Dose-dependent effect | Toxic
NC1=N[C@@]23CCCN2C(=O)c2cc(Br)c(Br)n2[C@H]3N1 [DIBROMPHAKELLIN HYDROCHLORIDE] | > 47 µM |  |  |  |  |  |  | 
CN(C)CCc1ccc(OCCCNC(=O)c2cc(Br)c[nH]2)c(Br)c1 [AGELANESIN A] | > 42 µM |  | 9.55 µM | inactive | inactive | -0.5% |  | 
Cn1c(C(=O)NCCCC(=O)O)cc(Br)c1Br | > 54 µM |  |  | inactive | inactive | 108% |  | 

Further lines, with some results ahead:

MIC [1, 8] | MIC [1] | Structure (SMILES) | IC50 (L5178Y [2]) | inhibition [3] | growth inhibition (GI) [4] | growth, % of control (L5178Y [5]) | inhibition (Amphibalanus improvisus [6]) | Activity (Amphibalanus improvisus [7])
> 33 µM |  | CN(C)CCc1ccc(OCCCNC(=O)c2cc(Br)c(Br)[nH]2)c(I)c1 [AGELANESIN D] | 13.1 µM | inactive | inactive | -2.3% |  | 
> 45 µM |  | NC1=N[C@@]23CCCN2C(=O)c2cc(Br)c(Br)n2[C@]3(O)N1 [DIBROMOHYDROXYPHAKELLIN HYDROCHLORIDE] |  | inactive | inactive | 113% |  | 
> 67 µM |  | COC(=O)c1cc(Br)c(Br)n1C |  | inactive | inactive | 83.4% |  | 
> 87 µM |  | O=C1NCC(O)n2cc(Br)cc21 (configuration not stated) | > 43.2 µM | inactive | inactive | 78.5% |  | 
> 71 µM |  | Cn1c(C(=O)O)cc(Br)c1Br |  | inactive | inactive | 87.8% |  | 
> 52 µM |  | Cn1c(C(=O)NCCS(=O)(=O)O)cc(Br)c1Br [MAURITAMIDE D] |  | inactive | inactive | 118% |  | 
> 36 µM |  | CN(C)CCc1ccc(OCCCNC(=O)c2cc(Br)c(Br)[nH]2)c(Br)c1 [AGELANESIN C] | 16.8 µM | inactive | inactive | 0.8% |  | 
> 37 µM |  | Cn1c(C(=O)NCCCC2(NCCS(=O)(=O)O)NC(=N)NC2=O)cc(Br)c1Br (configuration not stated) [MAURITAMIDE B] |  | inactive | inactive | 92.5% |  | 
> 44 µM |  | CC(=O)C(O)(CCCNC(=O)c1cc(Br)c(Br)n1C)CC(=O)O (configuration not stated) [AGELANIN B] |  | inactive | inactive | 92.8% |  | 
